Measurements reported in paper PMC8820820, “Feasibility and safety of targeting mitochondria for cancer therapy – preclinical characterization of gamitrinib, a first-in-class, mitochondriaL-targeted small molecule Hsp90 inhibitor” (Cancer Biology & Therapy, 2022).

What was measured:
Kv4.3/KChIP2 = biological target: T1, Kv4.3/KChIP2 (Homo sapiens, UniProt Q9UK17); test: Ion channel screening; assay type: cell-based; conditions: 10 µM
T1 sequence (Q9UK17 1-655): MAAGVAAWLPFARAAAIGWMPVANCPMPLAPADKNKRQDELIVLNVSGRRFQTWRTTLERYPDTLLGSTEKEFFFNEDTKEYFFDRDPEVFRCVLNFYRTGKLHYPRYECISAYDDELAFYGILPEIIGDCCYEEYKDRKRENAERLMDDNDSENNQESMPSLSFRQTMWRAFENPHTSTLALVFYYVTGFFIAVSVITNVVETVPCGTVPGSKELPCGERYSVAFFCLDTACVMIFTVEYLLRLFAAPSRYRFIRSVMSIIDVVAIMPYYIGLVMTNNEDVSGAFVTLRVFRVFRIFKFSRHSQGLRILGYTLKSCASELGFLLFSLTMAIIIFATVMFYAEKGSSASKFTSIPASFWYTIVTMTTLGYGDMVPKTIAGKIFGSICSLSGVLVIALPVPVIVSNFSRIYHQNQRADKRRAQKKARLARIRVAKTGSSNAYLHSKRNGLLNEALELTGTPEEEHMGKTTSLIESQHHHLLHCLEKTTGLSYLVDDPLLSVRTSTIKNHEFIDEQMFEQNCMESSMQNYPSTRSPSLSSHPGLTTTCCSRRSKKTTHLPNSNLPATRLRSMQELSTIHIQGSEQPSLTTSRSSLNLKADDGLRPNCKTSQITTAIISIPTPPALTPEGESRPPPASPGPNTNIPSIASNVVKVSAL
T1 sequence (Q9NS61 1-270 partner): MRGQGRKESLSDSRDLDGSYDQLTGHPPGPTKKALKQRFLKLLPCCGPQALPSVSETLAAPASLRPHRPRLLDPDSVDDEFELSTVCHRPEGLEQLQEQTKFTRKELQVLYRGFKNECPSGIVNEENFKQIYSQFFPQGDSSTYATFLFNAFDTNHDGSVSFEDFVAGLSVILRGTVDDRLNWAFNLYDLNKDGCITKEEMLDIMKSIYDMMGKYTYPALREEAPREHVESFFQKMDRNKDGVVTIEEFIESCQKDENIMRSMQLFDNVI
Text: Ion channel screening. […] The parameters measured were the maximum inward current evoked on stepping to -20 mV from the 1st and 26th pulse. Human Kv4.3/KChIP2 currents were evoked from a holding potential of -80 mV by a series of four 500 msec pulses to 0 mV using a 1000 msec interval between pulses. The parameter measured was the amplitude of the outward current 50 msec after the onset of the 4th voltage step to 0 mV. […] Human Kv1.5 currents were evoked by a single pulse from a holding potential of -80 mV to a potential of 0 mV for 4 sec before returning to -80 mV. The parameters measured were the maximum amplitude of outward currents evoked at the beginning of the voltage pulse and at the end of the voltage step from -80 mV to 0 mV. Human KCNQ1/minK currents were evoked by a single pulse delivered from a holding potential of -80 mV to +60 mV for 4 sec before returning to -80 mV. The parameter measured was the maximum outward current evoked on stepping to +60 mV from the holding potential of -80 mV. hERG currents were evoked by a three-pulse protocol where voltage was first stepped to +40 mV for two sec from a holding potential of –80 mV to inactivate hERG channels. […] The parameter measured was the maximum inward current evoked upon stepping to -110 mV from the holding potential of -30 mV. […]

Caco-2 intestinal cells = test: Bidirectional Caco2 cell monolayer permeability; conditions: Caco-2
Method: Caco-2 and HEK293 cells were obtained from the American Type Culture Collection (ATCC, Manassas, VA) and grown in culture according to the supplier’s specifications. In some experiments, HEK293 cells were stably transfected with hERG cDNA, and polyclonal cultures were maintained in the presence of 250 µg/ml geneticin (G418).
Bidirectional Caco2 cell monolayer permeability. Caco2 cells (2x10^4/well) were seeded onto apical chambers of a 24-multiwell insert plate and incubated at 37°C in 5% CO2. After 21 d, the transepithelial electrical resistance (TEER) in ohms was read for each insert well as a quality control for monolayer integrity (>900 ohms or 300 ohms cm^2). The cell monolayers were incubated with 400 µL transport buffer on the apical (A) and 1.2 mL on the basolateral (B) sides for 30 min. After preincubation, dosing solution was added to the apical (400 µL, A-to-B, donor) or basolateral sides (1.2 mL, B-to-A, donor) or receiving buffer to the apical (400 µL, B-to-A, receiver) or basolateral sides (1.2 mL, A-to-B, receiver) for 90 min at 37°C in 5% CO2. […] Papp’A>B (nm/s) was calculated with Equation 1.
Papp Efflux Ratio (ER) was calculated with Equation 2.
ER=Papp,B>APapp,A>BEquation 2: […]
Propranolol (high permeability marker, non-P-gp substate) and digoxin (P-gp substrate) were used as controls.

CYP2C9 = CYP2C9 (Homo sapiens, UniProt P11712); conditions: microsomes
Method: (§1) CYP inhibition in liver microsomes. […] Samples were analyzed for metabolite formation by LC-MS/MS. The results were expressed using the peak area ratio of analyte to internal standard, based on the calibration curves.
(§2) Where Range=fitted uninhibited value, s=slope factor, x=inhibitor concentration, y=% control activity.

CYP3A4 = CYP3A4 (Homo sapiens, UniProt P08684); conditions: microsomes
Sequence of CYP3A4 (P08684 whole entry): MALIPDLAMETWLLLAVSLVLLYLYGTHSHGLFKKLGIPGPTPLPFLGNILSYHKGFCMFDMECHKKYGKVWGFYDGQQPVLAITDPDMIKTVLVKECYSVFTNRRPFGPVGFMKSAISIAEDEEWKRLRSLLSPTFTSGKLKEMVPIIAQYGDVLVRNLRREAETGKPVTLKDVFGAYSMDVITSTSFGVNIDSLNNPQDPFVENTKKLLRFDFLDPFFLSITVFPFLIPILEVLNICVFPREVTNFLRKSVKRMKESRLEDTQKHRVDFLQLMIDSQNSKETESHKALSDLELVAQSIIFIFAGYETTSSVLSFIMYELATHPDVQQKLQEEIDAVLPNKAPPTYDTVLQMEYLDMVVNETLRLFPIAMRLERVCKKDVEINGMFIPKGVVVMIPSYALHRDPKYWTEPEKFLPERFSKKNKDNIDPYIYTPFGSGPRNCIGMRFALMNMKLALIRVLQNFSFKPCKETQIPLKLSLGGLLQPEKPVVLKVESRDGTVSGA
Method: as §1, §2

Sequence of CYP2C9 (P11712 whole entry): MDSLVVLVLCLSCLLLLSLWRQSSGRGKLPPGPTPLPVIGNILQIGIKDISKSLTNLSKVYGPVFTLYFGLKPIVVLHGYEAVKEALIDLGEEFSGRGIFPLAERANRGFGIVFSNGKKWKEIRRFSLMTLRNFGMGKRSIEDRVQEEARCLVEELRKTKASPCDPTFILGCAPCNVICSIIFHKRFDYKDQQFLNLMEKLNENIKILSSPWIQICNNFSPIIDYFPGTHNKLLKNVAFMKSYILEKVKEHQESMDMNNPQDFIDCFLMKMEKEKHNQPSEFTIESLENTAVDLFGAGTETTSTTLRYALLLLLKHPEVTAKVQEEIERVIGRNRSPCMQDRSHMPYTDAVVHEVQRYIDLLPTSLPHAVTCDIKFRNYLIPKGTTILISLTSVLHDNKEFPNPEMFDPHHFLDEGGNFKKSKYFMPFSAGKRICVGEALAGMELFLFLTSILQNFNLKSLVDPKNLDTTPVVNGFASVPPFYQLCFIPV

Q: Which results are given for `COC1C=CC=C(C)C(=O)NC2=CC(=O)C(NCCCCCC[P+](c3ccccc3)(c3ccccc3)c3ccccc3)=C(CC(C)CC(OC)C(O)C(C)C=C(C)C1OC(N)=O)C2=O.F[P-](F)(F)(F)(F)F` (stereo not drawn) [Gamitrinib]?
A: inhibition of Kv4.3/KChIP2 currents (Kv4.3/KChIP2): 6.8 ± 2.2%; Papp Efflux Ratio (ER) (Caco-2 intestinal cells): 5.77; Papp, A>B (Caco-2 intestinal cells): 0.19 ×10⁻⁶ cm/s; Papp, B>A (Caco-2 intestinal cells): 1.094 ×10⁻⁶ cm/s; Pexact Efflux Ratio (Caco-2 intestinal cells): 5.54; Pexact,A>B (Caco-2 intestinal cells): 0.197 ×10⁻⁶ cm/s; Pexact,B>A (Caco-2 intestinal cells): 1.092 ×10⁻⁶ cm/s; IC50 (CYP2C9): 1100 nM; IC50 (CYP3A4): 120 to 200 nM
